The results in this text go back to patent US9403843B2, “Cysteine protease inhibitors and uses thereof” (The Trustees of Columbia University in the City of New York, priority 2012, dated 2016).

The target in assay [1] is T1, full-length human Cal1 (Homo sapiens (Human), UniProt P07384). Briefly: Calpain inhibition FRET assay. Type of assay: biochemical. Particulars: Table 3, 20 min incubation, FRET substrate, >1: inhibition not quantifiable at 1 μM.
For assay [2], the target named is T1, full-length human Cal1. Description: Calpain inhibition FRET assay. Type of assay: biochemical. To be noted: for IC50: Table 2, approximate IC50, read-out: Cal I IC50. As for the experimental part: Calpain activity was measured using full-length human Cal1 in the presence of a FRET substrate. IC50 values were approximated by co-incubation of varying concentrations of the appropriate inhibitor (10, 100, 500, 1000 nM) in the presence of the FRET substrate (DABCYL)TPLK-SPPSPR-(EDANS) (SEQ ID NO: 5) and activation buffer. […] A peptide inhibitor, Z-LLY-FMK (SEQ ID NO: 6), was used as a positive control.
The Calbiochem InnoZyme activity kit was used for measuring the inhibition effect inhibitors on human erythrocyte calpain 1 activity. […] 20 μM of the FRET substrate, 10 nM of native Cal1, and 20 μM TCEP (reducing agent) were added to the reaction mixture containing assay buffer (Tris [10 mM], NaCl [100 mM], pH 7.4). Cal1 was activated by the addition of 10 μM calcium. Cleavage of the scissile bond amide bond, K-S, releases the fluorophore (EDANS) from the internal quenching molecule (DABCYL), resulting in an increase in fluorescence measured at 320 nm excitation and 480 nm emission wave lengths for 30 min. Each inhibitor was added to the reaction mixture at varying concentrations (10 nM, 100 nM, 1 μM, and 10 μM) to detect inhibition of Cal1 and reduction in fluorescence was measured by 96 well-plate reader. Approximate IC50 values of each compound were generated using linear regression within Graphpad Prism Software.

Entries after “also recorded” stand apart in the source; their conditions may differ. Where two headings read alike, the source gives them in different places. Bounds are passed on as bounds.

T1 sequence (P07384 whole entry): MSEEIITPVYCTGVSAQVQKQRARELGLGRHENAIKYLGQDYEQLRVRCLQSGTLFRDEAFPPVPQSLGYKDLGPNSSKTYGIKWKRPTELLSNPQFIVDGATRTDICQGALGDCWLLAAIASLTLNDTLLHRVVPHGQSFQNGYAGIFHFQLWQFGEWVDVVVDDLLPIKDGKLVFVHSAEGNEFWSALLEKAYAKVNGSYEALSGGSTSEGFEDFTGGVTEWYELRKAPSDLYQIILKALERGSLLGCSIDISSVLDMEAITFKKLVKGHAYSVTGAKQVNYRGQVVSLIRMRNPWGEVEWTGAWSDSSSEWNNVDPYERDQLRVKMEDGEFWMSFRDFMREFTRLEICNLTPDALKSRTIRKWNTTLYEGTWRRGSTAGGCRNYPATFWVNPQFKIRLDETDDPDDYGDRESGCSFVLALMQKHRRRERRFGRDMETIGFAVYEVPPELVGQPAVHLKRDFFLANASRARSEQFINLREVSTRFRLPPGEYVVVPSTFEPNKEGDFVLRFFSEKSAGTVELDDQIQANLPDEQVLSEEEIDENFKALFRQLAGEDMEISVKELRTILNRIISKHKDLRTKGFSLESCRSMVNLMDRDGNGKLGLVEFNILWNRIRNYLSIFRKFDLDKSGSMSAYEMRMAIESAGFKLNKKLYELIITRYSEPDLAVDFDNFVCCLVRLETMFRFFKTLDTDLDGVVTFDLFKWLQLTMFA
T1 sequence (P04632 whole entry partner): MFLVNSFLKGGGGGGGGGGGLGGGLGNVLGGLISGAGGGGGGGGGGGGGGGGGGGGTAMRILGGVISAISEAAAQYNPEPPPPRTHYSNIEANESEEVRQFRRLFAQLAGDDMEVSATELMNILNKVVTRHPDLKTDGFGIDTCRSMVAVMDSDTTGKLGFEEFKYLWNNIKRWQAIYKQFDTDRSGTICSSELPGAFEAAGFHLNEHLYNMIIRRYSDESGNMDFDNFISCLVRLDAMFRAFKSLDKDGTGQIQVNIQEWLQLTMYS

By IC50 is commonly meant the concentration that gives 50% inhibition. In turn, `NS(=O)(=O)c1ccc(-n2cc(CNC(=O)[C@H](Cc3cscn3)NC(=O)[C@H]3O[C@@H]3C(=O)O)nn2)cc1` [Compound 53, (2S,3S)-3-((S)-1-oxo-1-((1-(4-sulfamoylphenyl)-1H-1,2,3-triazol-4-yl)methylamino)-3-(thiazol-4-yl)propan-2-ylcarbamoyl)oxirane-2-carboxylic acid] displayed an IC50 in assay [1] above 1000 nM. Moreover, in assay [2], the “Cal1 inhibition (in words)” value is “relatively high IC50 values” and the IC50 is above 1000 nM.
Consider `CC(C)C[C@H](NC(=O)C1OC1c1ccccc1)C(=O)NCCCCNC(=N)N` (some centres unmarked) [Compound 65], for which, in assay [2], the IC50 was above 1000 nM.
For `CC(C)C[C@H](NC(=O)[C@H]1O[C@@H]1C(=O)O)C(=O)Nc1ccccc1` [Compound 22, (2S,3S)-3-((S)-4-methyl-1-oxo-1-(phenylamino)pentan-2-ylcarbamoyl)oxirane-2-carboxylic acid], the IC50 in assay [2] turned out to be 100 nM.
As to `O=C(Nc1nc(-c2ccc(F)cc2)cs1)[C@H](Cc1c[nH]cn1)NC(=O)[C@@H]1O[C@H]1C(=O)O` [Compound 30b, (2R,3R)-3-((S)-1-(4-(4-fluorophenyl)thiazol-2-ylamino)-3-(1H-imidazol-4-yl)-1-oxopropan-2-ylcarbamoyl)oxirane-2-carboxylic acid], the IC50 in assay [1] and in assay [2] was above 1000 nM each time.
In assay [1], `CC(C)C[C@H](NC(=O)[C@@H]1O[C@H]1C(=O)O)C(=O)Nc1c(F)cccc1F` [Compound 23b, (2R,3R)-3-((S)-1-(2,6-difluorophenylamino)-4-methyl-1-oxopentan-2-ylcarbamoyl)oxirane-2-carboxylic acid] returned an IC50 above 1000 nM. Besides, in assay [2], the “Cal1 inhibition (in words)” value was “not observed” and the IC50 was above 1000 nM.
As to `CCOC(=O)[C@@H]1O[C@H]1C(=O)N[C@@H](Cc1cnc[nH]1)C(=O)Nc1nc(-c2ccc(F)cc2)cs1` [Compound 77], the IC50 in assay [2] was above 1000 nM.
For `CCOC(=O)[C@H]1O[C@@H]1C(=O)NCc1ccc(CO)cc1` [Compound 82], the IC50 in assay [2] is above 1000 nM.
Still for that read-out and setting: under `Cn1cncc1C[C@H](NC(=O)[C@H]1O[C@@H]1C(=O)O)C(=O)Nc1nc(-c2ccc(F)cc2)cs1` [Compound 35, (2S,3S)-3-((S)-1-(4-(4-fluorophenyl)thiazol-2-ylamino)-3-(1-methyl-1H-imidazol-5-yl)-1-oxopropan-2-ylcarbamoyl)oxirane-2-carboxylic acid] stands 5000 nM.
The same measure, in the same setting: the figure for `CCOC(=O)[C@H]1O[C@@H]1C(=O)NC1(C(=O)NCCCCNS(=O)(=O)c2ccc(F)cc2)CCCCC1` [Compound 69] is above 1000 nM; for `CCOC(=O)[C@H]1OC1C(=O)N[C@@H](CC(C)C)C(=O)NCCCCNC(=O)CCCC[C@@H]1SC[C@@H]2NC(=O)N[C@@H]21` (some centres unmarked) [Compound 59] it is above 1000 nM; for `C#CCNC(=O)[C@H](CC(C)C)NC(=O)[C@H]1O[C@@H]1C(=O)O` [Compound 88] it is 275 nM.
Same read-out and setting: the figure for `CC(C)C[C@H](NC(=O)[C@H]1O[C@@H]1C(=O)O)C(=O)NCc1cn(-c2ccc(S(N)(=O)=O)cc2)nn1` [Compound 87] is 50 nM; for `O=C(O)[C@H]1O[C@@H]1C(=O)NCc1ccc(CO)cc1` [Compound 83] it is above 1000 nM; for `CCOC(=O)[C@H]1O[C@@H]1C(=O)N[C@@H](CC(C)C)C(=O)Nc1c(F)cccc1F` [Compound 81] it is above 1000 nM.
As for `O=C(NCc1cn(-c2ccccc2)nn1)[C@H](Cc1cscn1)NC(=O)[C@H]1O[C@@H]1C(=O)O` [Compound 49, (2S,3S)-3-((S)-1-oxo-1-((1-phenyl-1H-1,2,3-triazol-4-yl)methylamino)-3-(thiazol-4-yl)propan-2-ylcarbamoyl)oxirane-2-carboxylic acid], it took 1000 nM to reach half-maximal inhibition in assay [1] (IC50).
Consider `O=C(NCc1cn(-c2cc(C(F)(F)F)cc(C(F)(F)F)c2)nn1)[C@H](Cc1cscn1)NC(=O)[C@H]1O[C@@H]1C(=O)O` [Compound 54, (2S,3S)-3-((S)-1-((1-(3,5-bis(trifluoromethyl)phenyl)-1H-1,2,3-triazol-4-yl)methylamino)-1-oxo-3-(thiazol-4-yl)propan-2-ylcarbamoyl)oxirane-2-carboxylic acid], for which the IC50 in assay [1] was above 1000 nM. Moreover, in assay [2], the “Cal1 inhibition (in words)” value was “relatively high IC50 values; also recorded: weak activity” and the IC50 is above 1000 nM.
Regarding `O=C(Nc1ccccc1)[C@H](Cc1cnc[nH]1)NC(=O)[C@H]1O[C@@H]1C(=O)O` [Compound 28, (2S,3S)-3-((S)-3-(1H-imidazol-4-yl)-1-oxo-1-(phenylamino)propan-2-ylcarbamoyl)oxirane-2-carboxylic acid], the half-inhibitory concentration (IC50) in assay [2] stood at 5000 nM.
The same measure, in the same setting: the figure for `O=C(Nc1nc2ccc(F)cc2s1)[C@H](Cc1c[nH]cn1)NC(=O)[C@H]1O[C@@H]1C(=O)O` [Compound 31a, (2S,3S)-3-((S)-1-(6-fluorobenzo[d]thiazol-2-ylamino)-3-(1H-imidazol-4-yl)-1-oxopropan-2-ylcarbamoyl)oxirane-2-carboxylic acid] is 535 nM; for `CCOC(=O)[C@H]1O[C@@H]1C(=O)N[C@@H](CC(C)C)C(=O)Nc1nc(-c2ccc(F)cc2)cs1` [Compound 70] it is above 1000 nM; for `CC(C)C[C@H](NC(=O)[C@H]1O[C@@H]1C(=O)O)C(=O)N(C)c1nc(-c2ccc(F)cc2)cs1` [Compound 72] it is 200 nM.
Turning to `CCOC(=O)[C@H]1O[C@@H]1C(=O)N[C@@H](Cc1cnc[nH]1)C(=O)Nc1nc(-c2ccc(F)cc2)cs1` [Compound 78], in assay [2], the IC50 was above 1000 nM.
Take `O=C(Nc1ccccc1)[C@H](Cc1cscn1)NC(=O)[C@H]1O[C@@H]1C(=O)O` [Compound 32, (2S,3S)-3-((S)-1-oxo-1-(phenylamino)-3-(thiazol-4-yl)propan-2-ylcarbamoyl)oxirane-2-carboxylic acid]: half-maximal inhibition in assay [1] (IC50) was put at 2500 nM.
With `CCOC(=O)[C@H]1O[C@@H]1C(=O)N[C@@H](Cc1cnc[nH]1)C(=O)Nc1ccccc1` [Compound 85], in assay [2], the IC50 is above 10000 nM.
The same measure, in the same setting: the figure for `CC(C)NC(=O)[C@@H]1O[C@H]1C(=O)O` [Compound 74] is above 1000 nM; for `CC(C)C[C@H](NC(=O)C1OC1c1ccccc1)C(=O)NCCCCNC(=O)CCCCC1CCSS1` (some centres unmarked) [Compound 62] it is above 1000 nM.
In assay [1], `O=C(NCc1cn(-c2ccc(S(=O)(=O)N3CCCCC3)cc2)nn1)[C@H](Cc1cscn1)NC(=O)[C@H]1O[C@@H]1C(=O)O` [Compound 51, (2S,3S)-3-((S)-1-oxo-1-((1-(4-(piperidin-1-ylsulfonyl)phenyl)-1H-1,2,3-triazol-4-yl)methylamino)-3-(thiazol-4-yl)propan-2-ylcarbamoyl)oxirane-2-carboxylic acid] registered a half-inhibitory concentration (IC50) of 1500 nM.
`CCOC(=O)[C@@H]1O[C@H]1C(=O)N[C@@H](CC(C)C)C(=O)Nc1c(F)cccc1F` [Compound 80]: the IC50 in assay [2] is above 1000 nM.
For the compound `CC(C)C[C@H](NC(=O)[C@H]1O[C@@H]1C(=O)O)C(=O)NCc1cn(-c2ccc(F)cc2)nn1` [Compound 86], the IC50 in assay [2] was found to be 30 nM.
On the same count and under the same terms, the figure for `CCOC(=O)[C@@H]1O[C@H]1C(=O)NC(C)C` [Compound 73] is above 1000 nM.
As to `CCOC(=O)[C@@H]1O[C@H]1C(=O)NCc1ccc(CO)cc1` [Compound 79], the IC50 in assay [2] is above 1000 nM.
Take `CC(C)C[C@H](NC(=O)[C@H]1O[C@@H]1C(=O)O)C(=O)NCCCCNS(=O)(=O)c1ccc(F)cc1` [Compound 68]: the IC50 in assay [2] was 100 nM.
For the compound `CCOC(=O)[C@H]1O[C@@H]1C(=O)N[C@@H](CC(C)C)C(=O)Nc1ccccc1` [Compound 84], the IC50 in assay [2] turned out to be 2500 nM.
Take `CCOC(=O)[C@@H]1O[C@H]1C(=O)N[C@@H](CC(C)C)C(=O)Nc1nc(-c2ccc(F)cc2)cs1` [Compound 75]: the IC50 in assay [2] was above 1000 nM.
On to `CCOC(=O)[C@@H]1O[C@H]1C(N)=O` [Compound 76], for which the IC50 in assay [2] is above 1000 nM.
On to `CCOC(=O)[C@H]1OC1C(=O)N[C@@H](CC(C)C)C(=O)NCCCCNS(=O)(=O)c1ccc(F)cc1` (some centres unmarked) [Compound 63], for which, in assay [2], the IC50 is above 1000 nM.
As to `C#CCNC(=O)[C@H](CC(C)C)NC(=O)C1OC1c1ccccc1` (some centres unmarked) [Compound 60], the IC50 in assay [2] is above 1000 nM.
For `CCOC(=O)[C@H]1O[C@@H]1C(=O)N[C@@H](CC(C)C)C(=O)N(C)c1nc(-c2ccc(F)cc2)cs1` [Compound 71], the IC50 in assay [2] is above 1000 nM.
In the case of `O=C(NCc1cn(-c2ccc3c(c2)OCO3)nn1)[C@H](Cc1cscn1)NC(=O)[C@H]1O[C@@H]1C(=O)O` [Compound 52, (2S,3S)-3-((S)-1-((1-(benzo[d][1,3]dioxol-5-yl)-1H-1,2,3-triazol-4-yl)methylamino)-1-oxo-3-(thiazol-4-yl)propan-2-ylcarbamoyl)oxirane-2-carboxylic acid], in assay [2], the “Cal1 inhibition (in words)” value was “potent activity” and the IC50 was found to be 400 nM.
For the compound `Cc1cc(C)c(NC(=O)[C@H](Cc2cnc[nH]2)NC(=O)[C@H]2O[C@@H]2C(=O)O)c(C)c1` [Compound 29, (2S,3S)-3-((S)-3-(1H-imidazol-5-yl)-1-(mesitylamino)-1-oxopropan-2-ylcarbamoyl)oxirane-2-carboxylic acid], the IC50 in assay [2] was 5000 nM.
